Laboratory results from patent US8629149B2, “Oxopiperazine derivatives for the treatment of pain and epilepsy” (Zalicus Pharmaceuticals Ltd., priority 2009, dated 2014).

Assays:
[1] = target: T1, Cav3.2 T-type Ca2+ channels expressed in HEK cells (Homo sapiens, UniProt O95180); assay: Cav3.2 voltage-clamp electrophysiological assay; assay type: cell-based; conditions: Cav3.2 in HEK cells
T1 construct: expressed in transfected cells; host or cells: HEK cells
Source text: Prior to recording currents from Cav3.2 T-type Ca^2+ channels expressed in HEK cells, the culture media was replaced with extracellular solution (ECS) containing (in mM): 142 CsCl, 10 D-glucose, 2 CaCl2, 1 MgCl2, 10 HEPES, pH adjusted to 7.4 with CsOH. Borosilicate glass patch pipettes, pulled on a P-97 micropipette puller (Sutter Instruments, Novato, Calif.) with typical resistances of 2-4 MW, were backfilled with intracellular solution containing (in mM): 126.5 Cs-methanesulphonate, 2 MgCl2, 10 HEPES, 11 EGTA, 2 Na-ATP, pH adjusted to 7.3 CsOH. […] were recorded in the whole-cell configuration at room temperature (˜21° C.) using an Axopatch 200B (Molecular Devices, Sunnyvale, Calif.) patch-clamp amplifier. Recordings were low-pass filtered at 1 kHz (−3 dB 4-pole Bessel filter), digitized at 2 kHz with a Digidata 1322A interface (Molecular Devices), and acquired using pClamp 9.2 (Molecular Devices). No leak subtraction was used. Test compounds, prepared as 30 mM stock solutions in DMSO and diluted in extracellular buffer, were applied through a gravity driven multi-barrelled array of capillaries (24 gauge) connected to reservoirs controlled by solenoid valves. The effects of compounds on Cav3.2 slow and fast inactivation were evaluated using four different voltage protocols. The voltage dependence of fast and slow channel inactivation was examined using a two pulse protocol. Data were analyzed and fitted using OriginPro v.7.5 (OriginLab, Northampton, Mass.) software.

SNL L5/L6 rats = assay: L5/L6 spinal nerve ligation (SNL) Chung pain model, tactile allodynia (von Frey); assay type: in vivo, rat
Source text: The Spinal Nerve Ligation is an animal model representing peripheral nerve injury generating a neuropathic pain syndrome. In this model experimental animals develop the clinical symptoms of tactile allodynia and hyperalgesia. L5/L6 Spinal nerve ligation (SNL) injury was induced using the procedure of Kim and Chung (Kim et al., Pain 50:355-363 (1992)) in male Sprague-Dawley rats (Harlan; Indianapolis, Ind.) weighing 200 to 250 grams.
Anaesthesia was induced with 2% isofluorane in O2 at 2 L/min and maintained with 0.5% isofluorane in O2. Rats were then shaved and aseptically prepared for surgeries. A 2 cm paraspinal incision was made at the level of L4-S2. L4/L5 was exposed by removing the transverse process above the nerves with a small rongeur. The L5 spinal nerve is the larger of the two visible nerves below the transverse process and lies closest to the spine. The L6 spinal nerve is located beneath the corner of the slope bone. A home-made glass Chung rod was used to hook L5 or L6 and a pre-made slip knot of 4.0 silk suture was placed on the tip of the rod just above the nerve and pulled underneath to allow for the tight ligation. The L5 and L6 spinal nerves were tightly ligated distal to the dorsal root ganglion. The incision was closed, and the animals were allowed to recover for 5 days.
Sham control rats underwent the same operation and handling as the experimental animals, but without SNL.
Prior to initiating drug delivery, baseline behavioural testing data is obtained. At selected times after infusion of the Test or Control Article behavioural data can then be collected again.
The assessment of tactile allodynia consisted of measuring the withdrawal threshold of the paw ipsilateral to the site of nerve injury in response to probing with a series of calibrated von Frey filaments (innocuous stimuli). Animals were acclimated to the suspended wire-mesh cages for 30 min before testing. Each von Frey filament was applied perpendicularly to the plantar surface of the ligated paw of rats for 5 sec. A positive response was indicated by a sharp withdrawal of the paw. For rats, the first testing filament is 4.31. Measurements were taken before and after administration of test articles. […] The protocol was repeated until three changes in behaviour were determined (“up and down” method) (Chaplan et al., J. Neurosci. Methods 53:55-63 (1994)). The 50% paw withdrawal threshold was determined as (10^[Xf+kδ])/10,000, where Xf=the value of the last von Frey filament employed, k=Dixon value for the positive/negative pattern, and δ=the logarithmic difference between stimuli. The cut-off values for rats were no less than 0.2 g and no higher than 15 g (5.18 filament); for mice no less than 0.03 g and no higher than 2.34 g (4.56 filament). A significant drop of the paw withdrawal threshold compared to the pre-treatment baseline is considered tactile allodynia.
Rat SNL tactile allodynia were tested for Compounds 1-4 and 9-12 at 60 minutes compared to baseline and post-SNL. […] FIG. 1 is a plot of the antiallodynic effects of compound 4 (i.p.) tested in SNL L5/L6 rats using von Frey at three different doses, namely 3, 10 and 30 mpk, compared to vehicle alone. […] Rat SNL tactile allodynia were tested at 1, 2 and 4 hours after drug treatment (Table 6).

male CF1 mice = assay: 6 Hz psychomotor seizure model of partial epilepsy; assay type: in vivo, mouse; set-up: Epilepsy 6 Hz (% Protected): concentration or dose not given beside the values
Description: Compounds were evaluated for the protection against seizures induced by a 6 Hz, 0.2 ms rectangular pulse width of 3 s duration, at a stimulus intensity of 32 mA (CC97) applied to the cornea of male CF1 mice (20-30 g) according to procedures described by Barton et al, “Pharmacological Characterization of the 6 Hz Psychomotor Seizure Model of Partial Epilepsy,” Epilepsy Res. 47(3):217-27 (2001). Seizures are characterised by the expression of one or more of the following behaviours: stun, forelimb clonus, twitching of the vibrissae and Straub-tail immediately following electrical stimulation.

mice = assay: Mouse rotarod assay; assay type: in vivo
Description: To assess a compound's undesirable side effects (toxicity), animals were monitored for overt signs of impaired neurological or muscular function. In mice, the rotarod procedure (Dunham and Miya, J. Am. Pharmacol. Assoc. 46:208-209 (1957)) is used to disclose minimal muscular or neurological impairment (MMI). When a mouse is placed on a rod that rotates at a speed of 6 rpm, the animal can maintain its equilibrium for long periods of time. The animal is considered toxic if it falls off this rotating rod three times during a […].

[2] = voltage-dependence of half inactivation

T1 sequence (O95180 whole entry): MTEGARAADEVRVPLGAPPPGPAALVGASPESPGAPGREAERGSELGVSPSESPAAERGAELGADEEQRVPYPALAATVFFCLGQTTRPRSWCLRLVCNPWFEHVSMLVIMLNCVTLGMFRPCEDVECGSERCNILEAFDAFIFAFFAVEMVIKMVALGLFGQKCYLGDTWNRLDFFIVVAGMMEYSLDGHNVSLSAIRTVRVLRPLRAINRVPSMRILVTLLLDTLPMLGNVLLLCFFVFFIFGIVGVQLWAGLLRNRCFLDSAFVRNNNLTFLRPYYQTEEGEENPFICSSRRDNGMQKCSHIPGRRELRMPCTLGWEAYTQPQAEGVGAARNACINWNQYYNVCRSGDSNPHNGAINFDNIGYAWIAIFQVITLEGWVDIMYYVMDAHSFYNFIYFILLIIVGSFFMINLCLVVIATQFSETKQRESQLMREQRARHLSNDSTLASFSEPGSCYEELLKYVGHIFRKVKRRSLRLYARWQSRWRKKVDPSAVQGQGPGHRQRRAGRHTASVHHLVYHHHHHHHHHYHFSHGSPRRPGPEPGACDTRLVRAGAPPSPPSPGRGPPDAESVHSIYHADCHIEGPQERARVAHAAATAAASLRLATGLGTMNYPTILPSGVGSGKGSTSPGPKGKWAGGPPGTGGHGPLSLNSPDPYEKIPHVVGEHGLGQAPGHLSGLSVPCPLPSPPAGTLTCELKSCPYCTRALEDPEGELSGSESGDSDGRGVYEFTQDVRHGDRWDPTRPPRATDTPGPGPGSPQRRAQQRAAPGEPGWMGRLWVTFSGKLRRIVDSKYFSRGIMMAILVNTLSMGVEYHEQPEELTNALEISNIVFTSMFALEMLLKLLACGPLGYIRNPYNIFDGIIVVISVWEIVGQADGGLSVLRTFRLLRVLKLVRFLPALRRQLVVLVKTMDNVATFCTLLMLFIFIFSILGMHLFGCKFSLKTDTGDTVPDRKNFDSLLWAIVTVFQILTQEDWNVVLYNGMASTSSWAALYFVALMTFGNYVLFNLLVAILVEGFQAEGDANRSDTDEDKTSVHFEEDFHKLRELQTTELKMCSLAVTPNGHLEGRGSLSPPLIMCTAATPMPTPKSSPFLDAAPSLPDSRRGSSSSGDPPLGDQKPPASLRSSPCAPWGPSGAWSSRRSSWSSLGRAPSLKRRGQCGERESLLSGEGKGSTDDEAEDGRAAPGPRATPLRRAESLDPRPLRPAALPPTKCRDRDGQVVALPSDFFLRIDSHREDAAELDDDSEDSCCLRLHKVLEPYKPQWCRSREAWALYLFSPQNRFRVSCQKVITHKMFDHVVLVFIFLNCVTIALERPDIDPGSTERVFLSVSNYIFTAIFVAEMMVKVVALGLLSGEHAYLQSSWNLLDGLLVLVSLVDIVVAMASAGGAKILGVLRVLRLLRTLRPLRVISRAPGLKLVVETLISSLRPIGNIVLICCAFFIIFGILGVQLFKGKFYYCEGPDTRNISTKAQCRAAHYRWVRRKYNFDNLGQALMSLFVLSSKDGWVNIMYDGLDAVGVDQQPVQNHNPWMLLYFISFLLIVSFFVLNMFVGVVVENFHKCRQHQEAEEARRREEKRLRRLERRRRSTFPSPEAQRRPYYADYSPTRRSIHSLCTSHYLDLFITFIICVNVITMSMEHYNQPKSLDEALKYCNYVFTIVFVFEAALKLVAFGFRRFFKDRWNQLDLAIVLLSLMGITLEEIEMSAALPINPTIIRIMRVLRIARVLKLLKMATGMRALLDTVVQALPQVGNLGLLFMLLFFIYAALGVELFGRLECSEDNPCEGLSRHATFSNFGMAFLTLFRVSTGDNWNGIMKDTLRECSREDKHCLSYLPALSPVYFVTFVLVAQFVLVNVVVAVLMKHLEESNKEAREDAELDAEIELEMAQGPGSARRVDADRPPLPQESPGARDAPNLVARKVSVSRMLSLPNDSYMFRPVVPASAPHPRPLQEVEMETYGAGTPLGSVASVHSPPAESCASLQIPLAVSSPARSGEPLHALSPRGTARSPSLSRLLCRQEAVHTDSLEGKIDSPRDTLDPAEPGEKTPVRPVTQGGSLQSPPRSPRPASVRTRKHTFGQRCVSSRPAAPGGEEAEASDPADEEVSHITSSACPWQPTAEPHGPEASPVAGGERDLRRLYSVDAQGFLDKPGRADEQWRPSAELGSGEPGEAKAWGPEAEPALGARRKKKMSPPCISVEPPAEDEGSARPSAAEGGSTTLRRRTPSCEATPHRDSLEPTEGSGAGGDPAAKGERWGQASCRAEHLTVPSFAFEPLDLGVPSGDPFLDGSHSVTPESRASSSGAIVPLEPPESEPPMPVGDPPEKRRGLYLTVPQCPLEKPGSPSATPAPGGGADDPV

| Structure (SMILES) | Fraction of current recovered at 5.1 s interval [1] | Rat SNL Tactile Allodynia (% Antiallodynia) (SNL L5/L6 rats; 1 hour after drug treatment) [%] | Epilepsy 6 Hz (% Protected) (male CF1 mice; 0.25 hour) [%] | Epilepsy 6 Hz (% Protected) (male CF1 mice; 0.5 hour) [%] | Epilepsy 6 Hz (% Protected) (male CF1 mice; 1 hour) [%] | Epilepsy 6 Hz (% Protected) (male CF1 mice; 2 hours) [%] | % Impaired (mice; 0.25 hr) [%] | % Impaired (mice; 0.5 hr) [%] | % Impaired (mice; 1 hr) [%] | % Impaired (mice; 2 hr) [%] | % Impaired (mice; 4 hr) [%] | other results |
| --- | --- | --- | --- | --- | --- | --- | --- | --- | --- | --- | --- | --- |
| O=C1CN(C(=O)CC(c2ccc(Cl)cc2)c2ccc(Cl)cc2)CCN1 [Compound 3, 4-(3,3-bis(4-chlorophenyl)propanoyl)piperazin-2-one] | 0.91 | 51 | 0 | 0 | 0 | 0 | 0 | 0 | 0 | 0 | 0 | τ recovery from fast inactivation (ms) [1]: *512 ms; τ recovery from slow inactivation (ms) [1]: *903 ms; Fraction current remaining at −40 mV ([1]; at −40 mV): *0.40; V1/2 fast inactivation (mV) [1, 2]: −64 mV; V1/2 slow inactivation (mV) [1, 2]: −78 mV; Rat SNL Tactile Allodynia (% Antiallodynia) (SNL L5/L6 rats; 2 hours after drug treatment): 49%; Rat SNL Tactile Allodynia (% Antiallodynia) (SNL L5/L6 rats; 4 hours after drug treatment): 30%; Epilepsy 6 Hz (% Protected) (male CF1 mice; 4 hours): 0% |
| O=C1CN(C(=O)CC(c2ccccc2)c2ccccc2)CCN1 [Compound 4, 4-(3,3-diphenylpropanoyl)piperazin-2-one] | 0.98 | 92 | 50 | 88 | 13 | 25 | 0 | 0 | 0 | 0 | 0 | τ recovery from slow inactivation [1]: 495 ms; Rat SNL tactile allodynia, anti-allodynia (statement) (SNL L5/L6 rats; compared to baseline and post-SNL): significant antiallodynia; Antiallodynic effects compared to vehicle (FIG. 1) (SNL L5/L6 rats; i.p., 3, 10 and 30 mpk, 60 minutes after drug administration, von Frey): statistically significant antiallodynic effects; ED50 (male CF1 mice; Mus musculus, 32 mA, mice): 192 mg/kg |
